In patent publication US20120010266A1, “TBC1D7 AS TUMOR MARKER AND THERAPEUTIC TARGET FOR CANCER” (Oncotherapy Science Inc.,, priority 2008, published 2012):

T1: flag-TBC1D7 (exogenous TBC1D7 transiently expressed in COS-7 cells) (human, UniProt Q9P0N9 1-293)
T1 construct: The only full-length flag vector described is pCAGGSn3FC, with 3xflag at the C-terminus, so it may be the same construct as m2; The order of the parts is therefore uncertain
T1 sequence: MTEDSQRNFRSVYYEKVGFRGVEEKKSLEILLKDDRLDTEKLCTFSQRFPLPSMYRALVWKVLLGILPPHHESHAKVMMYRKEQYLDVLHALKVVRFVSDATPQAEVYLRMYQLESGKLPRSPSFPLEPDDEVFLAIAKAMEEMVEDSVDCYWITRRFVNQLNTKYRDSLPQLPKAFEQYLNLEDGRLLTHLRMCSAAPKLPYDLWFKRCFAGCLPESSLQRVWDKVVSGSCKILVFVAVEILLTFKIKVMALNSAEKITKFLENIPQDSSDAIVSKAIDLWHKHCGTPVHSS

B1: Myc-RAB17 (pcDNA3.1 Myc-His RAB17), exogenous RAB17 expressed in COS-7 cells (other)
chain: MAQAHRTPQPRAAPSQPRVFKLVLLGSGSVGKSSLALRYVKNDFKSILPTVGCAFFTKVVDVGATSLKLEIWDTAGQEKYHSVCHLYFRGANAALLVYDITRKDSFLKAQQWLKDLEEELHPGEVLVMLVGNKTDLSQEREVTFQEGKEFADSQKLLFMETSAKLNHQVSEVFNTVAQELLQRSDEEGQALRGDAAVALNKGPARQAKCCAH
notes: not shown: Myc-His tag of the pcDNA3.1 Myc-His vector

Experiments:
TSC1 = assay: si-TSC1 treatment of LC319 cells: TSC1 and TBC1D7 transcript and protein levels (semiquantitative RT-PCR, western blot); type: cell-based, human; settings: for TBC1D7 protein level: LC319 cells treated with siRNA against TSC1, western blot
Protocol: Total RNA was extracted from cultured cells and clinical tissues using Trizol reagent (Life Technologies, Inc.) according to the manufacturer's protocol. Extracted RNAs were treated with DNase I (Nippon Gene) and reversely-transcribed using oligo (dT) primer and SuperScript II reverse transcriptase (Invitrogen). Semiquantitative RT-PCR experiments were carried out with the following synthesized TBC1D7-specific primers or with beta-actin (ACTB)-specific primers as an internal control: TBC1D7, 5′-[…]-3′ (SEQ ID NO.: 5) or 5′-[…]-3′ (SEQ ID NO.:15) and 5′-[…]-3′ (SEQ ID NO.: 6); TSC1, 5′-[…]-3′ (SEQ ID NO.:16) and 5′-[…]-3′ (SEQ ID NO.:17); ACTB, 5′-[…]-3′ (SEQ ID NO.: 7) and 5′-[…]-3′ (SEQ ID NO.: 8). PCR reactions were optimized for the number of cycles to ensure product intensity within the logarithmic phase of amplification.
Cells were lysed in lysis buffer; 50 mM Tris-HCl (pH 8.0), 150 mM NaCl, 0.5% NP-40, 0.5% deoxycholate-Na, 0.1% SDS, plus protease inhibitor (Protease Inhibitor Cocktail Set III; Calbiochem). It was used an ECL western-blotting analysis system (GE Healthcare Bio-sciences), as previously described (Takahashi K. et al. Cancer Res 2006; 66:9408-19).
Small interfering RNA (siRNA) duplexes (100 nM) were transfected into a NSCLC cell line, A549 and LC319, using 24 microL of Lipofectamine 2000 (Invitrogen) following the manufacturer's protocol. The transfected cells were cultured for 7 days, and the number of colonies was counted by Giemsa staining, and viability of cells was evaluated by 3-(4,5-dimethylthiazol-2-yl)-2,5-diphenyltetrazolium bromide (MTT) assay (cell counting kit-8 solution; Dojindo Laboratories), at 7 days after transfection. To confirm suppression of TBC1D7 and TSC1 expression, western blotting using antibodies to TBC1D7 and TSC1 as well as semiquantitative RT-PCR with synthesized primers specific for TBC1D7 and TSC1 were carried out as described above. SiRNA sequences against human TBC1D7 and TSC1 were as follows, si-TBC1D7#3: GAACAGUGCAGAGAAGAUA (SEQ ID NO.:18), si-TBC1D7#4: GAUAAAGUUGUGAGUGGAU (SEQ ID NO.:19), and si-TSC1: CGACACGGCUGAUAACUGA (SEQ ID NO.:20). The present inventors also designed siRNA oligonucleotides against control-1 (LUC: luciferase gene from Photinus pyralis), 5′-CGUACGCGGAAUACUUCGA-3′ (SEQ ID NO.:21) and control-2 (EGFP: enhanced green fluorescent protein (GFP) gene, a mutant of Aequorea victoria GFP), 5′-GAAGCAGCACGACUUCUUC-3′ (SEQ ID NO.:22).

[1] = test system: p-rpS6 (Ser235/236), downstream target of mTORC1; assay: Effect of TSC1 knockdown on mTORC1 pathway in LC319 cells (phosphorylation of rpS6); type: cell-based, human; settings: LC319 cells treated with siRNA against TSC1
[2] = molecular target: T1, flag-TBC1D7 (exogenous TBC1D7 …); assay: co-immunoprecipitation from COS-7 cells expressing flag-TBC1D7 and Myc-RAB17 (FIG. 4B)
Protocol: FIG. 4 depicts interaction of TBC1D7 with binding proteins. A, Interaction of exogenous TBC1D7 with endogenous 14-3-3 zeta protein in COS-7 cells. Immunoprecipitations were carried out using anti-flag M2 agarose and extracts from COS-7 cells transiently expressing flag-TBC1D7. Immunoprecipitates were subjected to western-blot analysis to detect endogenous 14-3-3. B, Interaction of exogenous TBC1D7 with exogenous RAB 17 protein in COS-7 cells. Immunoprecipitations were carried out using anti-flag M2 agarose and extracts from COS-7 cells transiently expressing flag-TBC1D7 and/or Myc-RAB17. Immunoprecipitates were subjected to western-blot analysis to detect exogenous RAB 17. IB, immunoblotting; IP, immunoprecipitation. C, Expression of TSC1 and TBC1D7 in lung cancer cells. […] Left panels, The levels of TSC1 and TBC1D7 transcripts and proteins, detected by semiquantitative RT-PCR analysis and western-blot analysis in LC319 cells transfected with si-TSC1. Right panels, The levels of TSC1 and TBC1D7 transcripts and proteins, detected by semiquantitative RT-PCR analysis and western-blot analysis in LC319 cells transfected with TSC1 expression vector. F, The levels of endogenous TSC1 and TBC1D7 proteins, detected by western blot analysis in LC319 cells that were initially transfected with si-TSC1, and were subsequently transfected with TSC1 expression vector 24 hours after the siRNA transfection. […]

| Molecule | transcription level of TBC1D7 (TSC1; LC319 cells treated with si-TSC1, semiquantitative RT-PCR) | TBC1D7 protein level (TSC1) | TBC1D7 protein level (TSC1; listed as siRNA against TSC1) | expression of the endogenous TSC1 (TSC1; LC319 cells, in comparison to control siRNA (si-EGFP)) | levels of p-rpS6 (Ser235/236) protein [1] | binding result [2] |
| --- | --- | --- | --- | --- | --- | --- |
| si-TSC1: siRNA sequence against human TSC1: CGACACGGCUGAUAACUGA (SEQ ID NO: 20) (listed as RNA, chemistry not given here) | unchanged | decreased | Reduced levels | suppressed | not changed | – |
| B1 | – | – | – | – | – | binds |
